Format in all cases: in vivo
One assay concerns Descurainia sophia. Put plainly: Composition activity test, soil sealing treatment. Here is the method:
(§1) are as follows, and the others were purchased from reagent companies. The technical materials were all dissolved in acetone and diluted with an aqueous solution containing 0.1% emulsifier Tween-80. The dilution is performed as required.
(§2) Weeds are cultivated in a controllable sunlight greenhouse at 20 to 30° C., in natural light, and relative humidity of 57% to 72%. […] The test soil was placed quantitatively to 3/4 of the pots and then watered from the bottom of the pots to completely wet the soil to saturation. The test weed seeds were germinated, and uniformly and quantitatively sowed on the surface, then covered with 0.5-2 cm soil according to the seed size, and ready-for use 72 hours after sowing.
(§3) 3 pots with 30 weed seeds per pot were treated in one treatment with 4 replications per treatment.
(§4) The well-sowed weeds were evenly placed on a platform with an area of 0.5 m^2, and a solution of agents was sprayed on the soil thereof by the 3WP-2000-type walking spray tower at a dosage of 450 kg/ha and at a spray pressure of 0.3 MPa. After all the solution was sprayed, the valve was closed. After 30 seconds, the door of the spray tower was opened, and the nutritional bowl was taken out. Then the valve was opened, and the spray tube was cleaned by spraying 50 ml of water.
(§5) A method for investigating absolute number was employed, wherein whole seedlings of survival weeds were cut off with a blade along the soil surface, and the fresh weight of the weeds was weighed with an analytical balance. For dead weeds, the fresh weight thereof was zero.
(§6) The investigation was performed after 21 days of the treatment for only once.
(§7) An optimum ratio of the two active ingredients was determined by the actual control effect, characteristics of herbicides, and balance of a corresponding formula. Wherein, in the formula, X represented the fresh weight inhibition rate of the active ingredient A in a dosage of P, and Y represented the fresh weight inhibition rate of the active ingredient B in a dosage of Q. The statistical results were shown in the table 6.

A further assay relates to Eriochloa villosa. The assay can be described thus: Composition activity test, post-emergence foliage spray.
A further assay concerns Capsella bursa-pastoris. Described as above.
The test system of a further assay is Conyza Canadensis. Described as above.
Another assay deals with Cyperus difformis. The assay is described as above.
The subject of another assay is Cyperus serotinus. The assay is described as above.
For a further assay, the system named is Eleusine indica. The description is as above.
Assay [1] deals with Echinochloa caudata Roshev. The description is as above.
A further assay concerns Lolium multiflorum Lamk. Put plainly: Composition activity test, soil sealing treatment. The note with it: B 300 g a.i./ha. Here is the method:
as §1, §2, §3, §4, §5, §6, §7

The next assay deals with Echinochloa crusgalli. Put plainly: Composition activity test, soil sealing treatment. As to conditions: B 600 g a.i./ha. The procedure:
as §1, §2, §3, §4, §5, §6, §7

In the next assay the test system is Leptochloa chinensis. The assay can be described thus: Composition activity test, soil sealing treatment. The procedure: as §1, §2, §3, §4, §5, §6, §7
For the next assay, the system named is Amaranthus retroflexus. Put plainly: Composition activity test, soil sealing treatment. Here is the method: as §1, §2, §3, §4, §5, §6, §7

Take `CC(C)N(C(=O)COc1nnc(C(F)(F)F)s1)c1ccc(F)cc1` [flufenacet]: the “Control effect (%) of B applied alone (B)” value (shortened to “Control effect (%)”) with Descurainia sophia (B 150 g a.i./ha) was 45.6%.

Consider `CCC/C(=N\OCC)C1=C(O)CC(CC(C)SCC)CC1=O` (stereo not shown) [sethoxydim], for which the “Control effect (%)” value in the assay on Eriochloa villosa (B 45 g a.i./ha) is 36.7%. For the compound `CCSC(C)CC1CC(=O)C(/C(CC)=N/OC/C=C/Cl)=C(O)C1` (stereo not shown) [clethodim], the “Control effect (%)” value with Eriochloa villosa (B 30 g a.i./ha) was found to be 35.5%. Turning to `O=C(Nc1ccc(F)cc1F)c1cccnc1Oc1cccc(C(F)(F)F)c1` [diflufenican], the “Control effect (%)” value with Capsella bursa-pastoris (B 75 g a.i./ha) is recorded as 33.1%. On to `C[n+]1ccc(-c2cc[n+](C)cc2)cc1` [paraquat dichloride], for which the “Control effect (%)” value in the assay with Conyza Canadensis (B 225 g a.i./ha) is on record as 48.4%; with Cyperus difformis (B 150 g a.i./ha), 35.7%. For `Cn1nc(C(F)(F)F)c(CS(=O)(=O)C2=NOC(C)(C)C2)c1OC(F)F` [pyroxasulfone], the “Control effect (%)” value with Descurainia sophia (B 60 g a.i./ha) is 57.6%. Consider `CP(=O)(O)CCC(N)C(=O)O` (stereo not shown) [glufosinate ammonium], for which the “Control effect (%)” value in the assay on Conyza Canadensis (B 300 g a.i./ha) came out at 57.8%; in the assay on Cyperus serotinus (B 300 g a.i./ha), 23.1%. Consider `CN(C(=O)COc1nc2ccccc2s1)c1ccccc1` [mefenacet], for which the “Control effect (%)” value in the assay with Descurainia sophia (B 150 g a.i./ha) turned out to be 46.4%. As for `CCCCOCN(C(=O)CCl)c1c(CC)cccc1CC` [butachlor], the “Control effect (%)” value in the assay with Descurainia sophia (B 225 g a.i./ha) is 42.2%.

As for `CP(=O)(O)CC[C@H](N)C(=O)O.N` [glufosinate-P-ammonium], the “Control effect (%)” value in the assay on Cyperus serotinus (B 150 g a.i./ha) came out at 21.4%.

For the compound `CCCOCCN(C(=O)CCl)c1c(CC)cccc1CC` [pretilachlor], the “Control effect (%)” value in the assay on Descurainia sophia (B 180 g a.i./ha) worked out at 51.2%. In the case of `c1cc[n+]2c(c1)-c1cccc[n+]1CC2` [diquat dibromide monohydrate], the “Control effect (%)” value is 37.8% in the assay on Conyza Canadensis (B 300 g a.i./ha) and 18.4% in the assay on Cyperus difformis (B 300 g a.i./ha). `CC1(C)CON(Cc2ccc(Cl)cc2Cl)C1=O` [bixlozone]: the “Control effect (%)” value in the assay with Eleusine indica (B 180 g a.i./ha) turned out to be 36.7%. In the case of `COP(=S)(OC)SCC(=O)N(c1ccc(Cl)cc1)C(C)(C)C` [anilofos], the “Control effect (%)” value in the assay on Descurainia sophia (B 75 g a.i./ha) was 38.3%. For `CS(=O)(=O)c1cc(C(F)(F)F)ccc1C(=O)c1cnoc1C1CC1` [isoxaflutole], the “Control effect (%)” value in assay [1] (B 15 g a.i./ha) amounted to 41.3%. With `Cc1ccccc1CO[C@@H]1C[C@@]2(C(C)C)CC[C@]1(C)O2` (racemic) [cinmethylin], the “Control effect (%)” value with Lolium multiflorum Lamk. is recorded as 33.7%. Regarding `Cc1nn(C)cc1C(=O)Oc1c(C(=O)c2ccc(C(F)(F)F)cc2S(C)(=O)=O)c(C)nn1C` [shuangzuocaotong], the “Control effect (%)” value in assay [1] (B 15 g a.i./ha) worked out at 35.9%.

`CC1(C)CON(Cc2ccccc2Cl)C1=O` [clomazone]: the “Control effect (%)” value in the assay with Eleusine indica (B 150 g a.i./ha) was 46.5%. For `CS(=O)(=O)c1ccc(C(=O)C2C(=O)CCCC2=O)c(Cl)c1COCC1CCCO1` (stereo not shown) [tefuryltrione], the “Control effect (%)” value in assay [1] (B 30 g a.i./ha) is 21.5%. On to `O=C(O)CNCP(=O)(O)O` [glyphosate], for which the “Control effect (%)” value in the assay on Conyza Canadensis (B 450 g a.i./ha) is on record as 51.2%. As to `CCCN(CCC)C(=O)SCc1ccccc1` [prosulfocarb], the “Control effect (%)” value in the assay on Echinochloa crusgalli is 32.6%. Consider `O=C(Nc1ccc(F)cc1)c1cccc(Oc2cccc(C(F)(F)F)c2)n1` [picolinafen], for which, in the assay on Capsella bursa-pastoris (B 45 g a.i./ha), the “Control effect (%)” value amounted to 44.4%. As for `COC(=O)[C@@H](C)Oc1ccc(Oc2cnc3cc(Cl)ccc3n2)cc1` [quizalofop-P-methyl], the “Control effect (%)” value with Eriochloa villosa (B 15 g a.i./ha) is recorded as 41.7%.

For `Cc1c(C(=O)c2cnn(C)c2O)ccc(S(C)(=O)=O)c1C1=NOCC1` [topramezone], the “Control effect (%)” value in [1] (B 7.5 g a.i./ha) turned out to be 38.5%. As for `CCC(CC)Nc1c([N+](=O)[O-])cc(C)c(C)c1[N+](=O)[O-]` [pendimethalin], in the assay with Leptochloa chinensis (B 150 g a.i./ha), the “Control effect (%)” value was determined as 43.2%.

For `Cc1ccc2c(c1)[C@H](Nc1nc(N)nc(C(C)F)n1)[C@@H](C)C2` (stereo partly shown) [indaziflam], the “Control effect (%)” value in the assay on Amaranthus retroflexus (B 15 g a.i./ha) stood at 49.3%. Turning to `CCc1cccc(C)c1N(C(=O)CCl)[C@@H](C)COC` [s-metolachlor], the “Control effect (%)” value in the assay on Descurainia sophia (B 150 g a.i./ha) is given as 31.3%. As to `Cc1cc(C)cc(OCC(C)Nc2nc(N)nc(C(C)(C)F)n2)c1` (stereo not shown) [triaziflam], in the assay with Amaranthus retroflexus (B 30 g a.i./ha), the “Control effect (%)” value stood at 42.1%.

On to `CCC[S@@+]([O-])c1c(C(F)(F)F)ccc(C(=O)Nc2nnc(C)o2)c1F` [Cpd B1], for which the “Control effect (%)” value in [1] (B 7.5 g a.i./ha) was 47.8%. For `CCC(C)Nc1c([N+](=O)[O-])cc(C(C)(C)C)cc1[N+](=O)[O-]` (stereo not shown) [butralin], the “Control effect (%)” value in the assay on Leptochloa chinensis (B 180 g a.i./ha) was 47.4%. Regarding `CNC1=C(c2cccc(C(F)(F)F)c2)C(=O)C(c2ccccc2)O1` (stereo not shown) [flurtamone], in the assay on Capsella bursa-pastoris (B 75 g a.i./ha), the “Control effect (%)” value came out at 56.7%.

These data come from patent US20230111310A1, “CARBOXYLIC ACID DERIVATIVE-SUBSTITUTED IMINO ARYL COMPOUND, PREPARATION METHOD THEREFOR, HERBICIDAL COMPOSITION AND USE THEREOF” (Qingdao Kingagroot Chemical Compound Co., Ltd., priority 2020, published 2023).
